According to PMC6470523, “Introduction of Nonacidic Side Chains on 6-Ethylcholane Scaffolds in the Identification of Potent Bile Acid Receptor Agonists with Improved Pharmacokinetic Properties” (Molecules, 2019):
In brackets after ≈: the same amount, converted by molar mass.

What was measured:
[1] = Aqueous solubility measurement (PBS pH 7.4, LC-MS); format: physicochemical; details: aqueous buffer, kinetic from dmso stock; aqueous solubility at pH 7.4 (PBS), 24 h room temperature
Procedure: (§1) Chromatography was performed using an Alliance pump system coupled to a Q-ToF Premiere (Waters Co., Milford, MA, USA). The mixture was separated on a Luna 5 µm C8(2) 100° A 150 × 2 mm from Phenomenex. The mobile phase consisted of 0.2% formic acid (FA) in water as solvent A and 0.2% FA in acetonitrile as solvent B at a flow rate of 200 μL/min. The gradient was as follows: 0–2 min (70% A and 30% B), 2–20 min (5% A and 95% B), 20–30 min (70% A and 30% B). The detection of analytes was achieved by electrospray ionization (ESI) in the positive mode with the appropriate MS/MS transitions, if necessary.
Ten microliters of a 10 mM solution in DMSO of each compound was diluted either in 490 μL of PBS pH 7.4 or in organic solvent MeOH (in triplicate). The tubes were gently shaken 24 h at room temperature, then centrifuged for 5 min at 4000 rpm. 10 microliters of sample were diluted in 490 μL of MeOH. The solubility is determined by the ratio of mass signal area PBS/organic solvent.

[2] = Liver microsomal stability; format: in vitro ADME, mouse; details: liver microsomes; for microsomal CLint at 1 µM / half-life at 1 µM: male, CD-1, mouse, pH 7.4, 1 μM compound, 37 °C; for half-life at 1 µM: read-out: t½
Procedure: as §1
Male mouse (CD-1) liver microsomes (Sigma-Aldrich, St. Louis, MO, USA) were used. All incubations were performed in duplicate in a shaking water bath at 37 °C. The incubation mixtures contained 1 μM compound with 1% DMSO used as a vehicle, mouse liver microsomes (0.3 mg of microsomal protein per mL), 5 mM MgCl2, 1 mM NADP, 5 mM glucose 6-phosphate, 0.4 U·mL^−1 glucose 6-phosphate dehydrogenase, and 50 mM potassium phosphate buffer (pH 7.4) in a final volume of 0.5 mL. Aliquots were removed at 0, 5, 10, 20, 30, and 40 min after microsome addition and the reaction was stopped by adding 200 μL of ice-cold acetonitrile. After two hours, the samples were centrifuged for 10 min at 10,000 rpm, and the supernatants were transferred in matrix tubes for LC-MS/MS analysis. LC-MS/MS analysis were carried out setting the m/z window around the value of the MH^+ of the unmodified compounds.
Propranolol, known as a high hepatic clearance drug in rodents, was used as a quality-control compound for the microsomal incubations. The slope of the linear regression of the curve obtained reporting the natural logarithm of compound area versus incubation time (−k) was used in the conversion to in vitro t1/2 values by t1/2 = −ln(2)/k. In vitro intrinsic clearance (Clint expressed as μL/min/mg) was calculated according to the following formula: Clint = volume of reaction (µL)/t1/2(min)/protein of liver microsomes (mg). The percentage of unmodified compound has been calculated assuming the area of the compound peak at time 0 min as 100%.

human FXR = target: T1, human FXR (Homo sapiens, UniProt Q96RI1); assay: FXR transactivation luciferase reporter assay in HepG2 cells; format: cell-based; details: for EC50: dose response 0.5 to 50 µM, 18 h; for EC50 / FXR Eff (%) vs 6-ECDCA / FXR Eff (%) vs CDCA: HepG2 cells; for FXR Eff (%) vs 6-ECDCA: maximum efficacy of compound (10 µM) relative to 6-ECDCA (1 µM) set as 100%; for FXR Eff (%) vs 6-ECDCA / FXR Eff (%) vs CDCA: FRE transactivation; for FXR Eff (%) vs CDCA: maximum efficacy of compound (10 µM) relative to CDCA (10 μM) set as 100%; for FXR activity (in words): transactivation assay
T1 construct: expressed in transfected cells; host or cells: HepG2
T1 sequence (Q96RI1 1-486): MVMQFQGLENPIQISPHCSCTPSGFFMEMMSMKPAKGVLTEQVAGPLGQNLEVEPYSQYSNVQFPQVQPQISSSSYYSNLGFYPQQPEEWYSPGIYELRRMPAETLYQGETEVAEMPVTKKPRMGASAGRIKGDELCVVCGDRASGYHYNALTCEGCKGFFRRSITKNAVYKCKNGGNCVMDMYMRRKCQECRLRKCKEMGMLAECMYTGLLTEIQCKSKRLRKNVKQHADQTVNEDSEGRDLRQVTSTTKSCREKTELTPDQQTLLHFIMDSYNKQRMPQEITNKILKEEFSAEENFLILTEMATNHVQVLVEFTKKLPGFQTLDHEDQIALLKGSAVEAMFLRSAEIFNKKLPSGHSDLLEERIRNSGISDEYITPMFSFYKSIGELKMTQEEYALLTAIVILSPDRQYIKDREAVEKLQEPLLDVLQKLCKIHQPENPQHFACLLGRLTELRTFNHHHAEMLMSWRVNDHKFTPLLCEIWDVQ
T1 sequence (P19793 1-462 partner): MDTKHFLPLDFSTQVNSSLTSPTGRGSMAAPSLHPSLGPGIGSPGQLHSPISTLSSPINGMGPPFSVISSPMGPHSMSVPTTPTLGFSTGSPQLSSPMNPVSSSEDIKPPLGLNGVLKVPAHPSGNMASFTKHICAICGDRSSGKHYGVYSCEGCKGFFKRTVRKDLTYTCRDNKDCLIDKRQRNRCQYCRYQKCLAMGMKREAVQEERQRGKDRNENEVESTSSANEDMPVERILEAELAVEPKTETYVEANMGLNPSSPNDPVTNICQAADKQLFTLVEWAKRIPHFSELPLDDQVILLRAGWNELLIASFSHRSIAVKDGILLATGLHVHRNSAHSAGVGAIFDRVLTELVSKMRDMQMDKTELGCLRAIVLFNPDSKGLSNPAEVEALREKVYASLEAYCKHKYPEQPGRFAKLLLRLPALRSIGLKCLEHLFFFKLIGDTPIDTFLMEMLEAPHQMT
Procedure: (§2) To evaluate FXR mediated transactivation, HepG2 cells were transfected with 100 ng of human pSG5-FXR, 100 ng of human pSG5-RXR, 200 ng of the reporter vector p(hsp27)-TK-LUC containing the FXR response element IR1 cloned from the promoter of heat shock protein 27 (hsp27) and with 100 ng of pGL4.70 (Promega), a vector encoding the human Renilla gene. To evaluate GPBAR1 mediated transactivation, HEK293T cells were transfected with 200 ng of human pGL4.29 (Promega), a reporter vector containing a cAMP response element (CRE) that drives the transcription of the luciferase reporter gene luc2P, with 100 ng of pCMVSPORT6-human GPBAR1, and with 100 ng of pGL4.70. […] After treatments, 10 μL of cellular lysates were read using a Dual-Luciferase Reporter Assay System (Promega Italia srl, Milan, Italy) according manufacturer specifications using the Glomax20/20 luminometer (Promega Italia srl, Milan, Italy). Luciferase activities were assayed and normalized with Renilla activities.
(§3) At 18 h post stimulations, cellular lysates were assayed for luciferase and Renilla activities using the Dual-Luciferase Reporter Assay System (E1980, Promega Italia srl, Milan, Italy). Luminescence was measured using Glomax 20/20 luminometer (Promega Iralia srl, Milan, Italy). Luciferase activities were normalized with Renilla activities.

human GPBAR1 = target: T2, human GPBAR1 (Homo sapiens, UniProt Q8TDU6); assay: GPBAR1 transactivation (CRE luciferase reporter) assay in HEK293T cells; format: cell-based; details: for EC50: dose response 0.5 to 50 µM, 18 h; for GPBAR1 Eff (%) vs 6-ECDCA: maximum efficacy of compound (10 µM) relative to 6-ECDCA (1 µM) set as 100, CRE transactivation; for GPBAR1 Eff (%) vs TLCA: maximum efficacy of compound (10 µM) relative to TLCA (10 μM) set as 100, CRE transactivation
T2 construct: expressed in transfected cells; host or cells: HEK293T
T2 sequence (Q8TDU6 1-330): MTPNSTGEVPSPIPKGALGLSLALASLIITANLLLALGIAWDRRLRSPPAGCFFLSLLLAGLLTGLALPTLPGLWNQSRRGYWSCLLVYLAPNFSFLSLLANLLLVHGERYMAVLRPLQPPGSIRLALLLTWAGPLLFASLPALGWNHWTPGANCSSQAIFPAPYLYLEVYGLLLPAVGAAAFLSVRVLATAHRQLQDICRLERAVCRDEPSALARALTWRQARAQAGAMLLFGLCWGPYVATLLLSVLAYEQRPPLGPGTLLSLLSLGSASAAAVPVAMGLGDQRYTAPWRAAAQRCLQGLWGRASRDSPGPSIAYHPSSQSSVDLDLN
Procedure: as §2, §3

[3] = test system: pro-glucagon mRNA in GLUTag cells; assay: RT-PCR of GPBAR1 target gene pro-glucagon mRNA in GLUTag cells; format: cell-based, murine; details: 1 and 10 µM, 18 h, Figure 2A
Procedure: (§4) HepG2 and GLUTag cells were plated at 1 × 10^6 cells/well in a six well plate. […] Total RNA was isolated from cells using the TRIzol reagent according to the manufacturer's specifications (Invitrogen, Carlsbad, CA, USA). One microgram of purified RNA was treated with DNase-I and reverse transcribed with Superscript II (Invitrogen, Carlsbad, CA, USA). For Real Time PCR, 10 ng template was dissolved in 25 μL containing 200 nmol/L of each primer and 12.5 μL of 2× SYBR FAST Universal ready mix (Invitrogen, Carlsbad, CA, USA). All reactions were performed in triplicate, and the thermal cycling conditions were as follows: 2 min at 95 °C, followed by 40 cycles of 95 °C for 20 s and 60 °C for 30 s in StepOnePlus (Applied Biosystems, Foster City, CA, USA). The relative mRNA expression was calculated accordingly to the Ct method. Primers were designed using the software PRIMER31 using published data obtained from the NCBI database. Forward and reverse primer sequences were the following: human GAPDH, [NT]; human SHP, [NT]; mouse GAPDH, [NT]; mouse pro-glucagon, [NT]

SHP mRNA in HepG2 cells = assay: RT-PCR of FXR target gene SHP mRNA in HepG2 cells; format: cell-based, human; details: 1 and 10 µM, 18 h, vs CDCA 10 µM, Figure 2B
Procedure: as §4

Structure (SMILES) | solubility at 24 h [1] [µM] | Percentage of compound remaining in solution after 40 min incubation [2] [%] | microsomal CLint at 1 µM [2] [µL/min/mg] | half-life at 1 µM [2] [min] | EC50 (human FXR) [nM] | FXR Eff (%) vs 6-ECDCA (human FXR) [%] | FXR Eff (%) vs CDCA (human FXR) [%] | EC50 (human GPBAR1) [nM] | GPBAR1 Eff (%) vs 6-ECDCA (human GPBAR1) [%] | GPBAR1 Eff (%) vs TLCA (human GPBAR1) [%] | FXR activity (in words) (human FXR) | pro-glucagon mRNA expression (in words) [3] | SHP mRNA expression (in words) (SHP mRNA in HepG2 cells)
CC[C@H]1[C@@H](O)[C@@H]2[C@H](CC[C@]3(C)[C@@H]([C@H](C)CCC(=O)O)CC[C@@H]23)[C@@]2(C)CC[C@@H](O)C[C@@H]12 [6-ECDCA, 6-ethylchenodeoxycholic acid, reference compound] | 195 (≈ 82 µg/mL) | 26.9 | 109 | 21.1 |  |  |  |  |  |  |  |  | 
C=CC(C)C1CCC2C3C(O)C(CC)C4CC(O)CCC4(C)C3CCC12C (stereo not drawn) [compound 1, 6α-Ethyl-3α, 7α-dihydroxy-24-nor-5β-chol-23-ene] | 201 (≈ 75.3 µg/mL) | 42.2 | 52.6 | 43.8 | 1800 ± 500 | 45.6 | 252 | 140 ± 32 | 367.1 | 79 |  |  | 
CCC(C)C1CCC2C3C(O)C(CC)C4CC(O)CCC4(C)C3CCC12C (stereo not drawn) [compound 2, 6α-Ethyl-3α, 7α -dihydroxy-24-nor-5β-cholane] | 176 (≈ 66.3 µg/mL) | 72.8 | 25 | 92.4 | 1300 ± 120 | 46.5 | 249 | 1500 ± 290 | 255.2 | 53 |  |  | 
CCC1C(O)C2C3CCC(C(C)CO)C3(C)CCC2C2(C)CCC(O)CC12 (stereo not drawn) [compound 3, 6α-Ethyl-3α, 7α -dihydroxy-23,24-dinor-5β-cholan-22-ol] | 210 (≈ 79.5 µg/mL) | 60.6 | 36.6 | 63 | 2800 ± 450 | 45 | 257 | 430 ± 15 | 243.4 | 55 |  |  | 
C=CC(C)C1CCC2C3C(O)C(CC)C4CCCCC4(C)C3CCC12C (stereo not drawn) [compound 4, 6α-Ethyl-7α-hydroxy-24-nor-5β-chol-23-ene] |  |  |  |  |  | 3.1 | 17 |  | 68.8 | 15 | inactive |  | 
CCC(C)C1CCC2C3C(O)C(CC)C4CCCCC4(C)C3CCC12C (stereo not drawn) [compound 5, 6α-Ethyl-7α-hydroxy-23,24-dinor-5β-cholane] |  |  |  |  |  | 2.5 | 14 |  | 53.4 | 12 | inactive |  | 
CCC1C(O)C2C3CCC(C(C)CO)C3(C)CCC2C2(C)CCCCC12 (stereo not drawn) [compound 6, 6α-Ethyl-7α-hydroxy-23,24-dinor-5β-cholan-22-ol] | 162 (≈ 58.7 µg/mL) | 79.2 | 19.7 | 117 | 13700 ± 2050 | 33.4 | 185 |  | 87.5 | 19 |  | failed to regulate | more potent than CDCA
